# Measurements as given in PMC4862498, “PI4 Kinase Is a Prophylactic but Not Radical Curative Target in Plasmodium vivax-Type Malaria Parasites” (Antimicrobial Agents and Chemotherapy, 2016).
# “Also recorded” adds a separate entry of the source.
# Assays:
# [1] = test system: P. cynomolgi sporozoite-infected rhesus macaques; experiment: Causal prophylaxis in P. cynomolgi sporozoite-infected rhesus macaques; assay type: in vivo, Plasmodium cynomolgi; settings: 20 mg/kg oral for 5 days from day 0, 4 monkeys, follow-up until day 102 p.i.
# Description: Sporozoites were harvested from P. cynomolgi-infected mosquitoes, washed with phosphate-buffered saline (PBS), and diluted to 100,000 sporozoites (spz)/ml in PBS. One-milliliter aliquots of sporozoites were prepared and injected into monkeys via intravenous (i.v.) injection.
# Monkeys were treated according to the schedule shown in Table 1 (stratification of treatment groups is given in the supplemental material). During treatment, monkeys were weighed daily and received the compound via gavage, followed by gastric feeding (weight change during treatment is shown in Table S6 in the supplemental material). […]
# Parasitemia was closely monitored by thin-film analysis. […] Thin-film slides were stained with 20% Giemsa stain, and at least 50 fields (±20,000 erythrocytes [RBCs]) were analyzed with a bright-field microscope (×1,200 magnification). […] From day 23 p.i., monkeys were monitored daily for relapses. The KDU691 radical-cure (group 691-RC) treatment and control groups were monitored until the first relapse. The LMV599 control (group 599-C), radical-cure (group 599-RC), and PQ radical-cure (group PQ-RC) treatment groups were monitored until the second relapse or until day 100 p.i. […]
# The prophylaxis groups were monitored daily until day 22 p.i. From day 22 to day 45 p.i., they were monitored three times a week, and from day 45 to day 105 p.i. (100 days after treatment), they were monitored twice a week. […]
# [2] = test system: Plasmodium berghei luciferase sporozoites; design: method as in PMID 25147620; settings: single dose of 7.5 mg/kg after sporozoite infection; cited from earlier work
# [3] = Clinical chemistry, hematology, weight and clinical observation of treated monkeys; assay type: in vivo, rhesus macaques (Macaca mulatta); settings: rhesus monkey, in vivo
# Description: Monkeys were treated according to the schedule shown in Table 1 (stratification of treatment groups is given in the supplemental material). During treatment, monkeys were weighed daily and received the compound via gavage, followed by gastric feeding (weight change during treatment is shown in Table S6 in the supplemental material). Monkeys in the prophylaxis groups (groups 691-proph and 599-proph) were treated ∼20 min after the i.v. sporozoite injection. The other monkeys were treated when all the monkeys in the experiment (except those in the prophylaxis group) were blood-stage patent (at day 11 p.i.). To kill the blood-stage parasites, all monkeys received a 5-day treatment of 7.5 mg/kg of body weight of chloroquine (CQ) (intramuscular [i.m.] injection), during compound dosing. KDU691 was formulated in 0.5% methylcellulose and 0.5% Tween 80 in water. LMV599 was formulated as a solid dispersion in a solution containing 5.6% (wt/wt) Tween 80–44.4% hydroxypropyl methylcellulose (HPMC) E3–38.9% Soluplus–11.1% vitamin E D-alphatocopheryl polyethylene glycol 1000 succinate (TPGS).
# Blood samples were collected for clinical evaluation and pharmacokinetic (PK) analysis (see Table S2 in the supplemental material).
# When the first relapse was observed, monkeys of the KDU691 experiment were radically cured with primaquine (PQ)/CQ (oral administration of 1.8 mg/kg PQ for 14 days together with i.m. administration of 7.5 mg/kg CQ for the first five days of PQ treatment) to cure both blood stage and liver stage parasites, […]
# The monkeys of the LMV599/PQ experiment were cured with a five day CQ treatment (7.5 mg/kg, i.m. administration) at the first relapse and were monitored until the second relapse after which they were cured with CQ (7.5 mg/kg, intramuscular (i.m.) for five days) plus PQ (1.8 mg/kg for 14 days).
# Table S2: PK and clinical blood sampling schedule in monkeys.
# Groups are named 691 for KDU691 and 599 for LMV599 treatment groups, followed by -C for control group (no compound), -proph for prophylactic treatment (treated immediately after infection), and -RC for radical cure treatment (treated when blood stage positive). […]
# the face and chest areas were very yellow. Therefore the 691-RC group (treated from d11 to d15 pi) was monitored by daily clinical chemistry analysis during dosing to be compared with untreated 691-C. […]
# sampling of the single dose prophylaxis group at day 0, 1, 7 and 100. The lack of aberrant clinical […]
# as radical cure compound, during which also clinical sampling was performed daily. a: only clinical chemistry samples were taken. *: t = 24 sample was taken only on the 1st day of dosing.
# Group name Clin. chem PK sampling PK time points
# Hematology (h post dosing)
# 691-proph 1st and 5th day of dosing t = 0, 1, 4, 6 and 24*
# 691-RC Dailya 1st and 5th day of dosing t = 0, 1, 4, 6 and 24* […]
# 599-RC Daily 1st and 4th day of dosing t = 0, 1, 2, 4 and 24
# Clinical chemistry and hematology
# For the clinical analysis serum from 1 mL of clotted blood was analysed using the Cobas Integra 400 plus fully automated chemistry analyser. The following clinical parameters were determined: Alkaline phosphatase; Alanine Aminotransferase; Albumin: Aspartate aminotransfeasr; Bilirubin; Calcium; Cholesterol; Creatine kinase; Creatinine; C-reactive protein: Iron; Phosphate; Gamma-glutamyl transpeptidase; Glucose; Hemoglobin; Potassium; Lactate dehydrogenase; Sodium; Total protein; Urea Haematological parameters were determined from 1 mL EDTA-blood with a Sysmex XT-2000iV automated system. The following hematological parameters were determined: Basophilic granulocytes; Eosinophilic granulocytes; Erythrocytes; Hematocrit; Leucocytes; Leucocyte differentiation; Lymphocytes; Mean corpusculair hemoglobin; Mean corpusculair hemoglobin concentration; Mean corpusculair volume; Neutrophilic granulocytes; Red cell distribution width; Thrombocytes […]
# Liver tissue samples were excised, dipped in PBS, gently blotted with absorbent paper, dried, weighed and stored at -20 °C until further analysis. […]
structure (smiles),measurement,setting,value
CNC(=O)c1ccc(-c2cnc3cnc(C(=O)N(C)c4ccc(Cl)cc4)cn23)cc1 [KDU691],causal prophylactic outcome (blood-stage parasitemia),[1],"fully protective; also recorded: completely effective; also recorded: eradicated all liver-stage parasites, including hypnozoites"
same,causal prophylactic protection in mice,[2],complete protection
same,"weight loss, % of the initial weight",[3],3.5%
